Reference: patent US10961231B2, “NTCP inhibitors” (National Institute of Biological Sciences, Beijing, priority 2018, dated 2021)

Biological target: T1, NTCP (Homo sapiens, UniProt Q14973)
T1 sequence (Q14973 1-349): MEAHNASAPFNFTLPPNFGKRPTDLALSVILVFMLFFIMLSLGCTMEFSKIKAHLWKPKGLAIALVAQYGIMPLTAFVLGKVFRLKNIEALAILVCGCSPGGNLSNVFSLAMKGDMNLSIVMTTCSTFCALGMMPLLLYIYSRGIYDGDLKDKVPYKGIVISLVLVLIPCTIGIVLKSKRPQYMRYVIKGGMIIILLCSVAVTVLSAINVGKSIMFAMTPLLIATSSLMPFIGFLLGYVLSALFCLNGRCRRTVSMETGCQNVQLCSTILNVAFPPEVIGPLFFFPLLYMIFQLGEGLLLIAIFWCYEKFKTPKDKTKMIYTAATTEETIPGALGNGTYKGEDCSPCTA
Assay: [3H]-TCA uptake assay (NTCP inhibition)
Assay type: cell-based
Method in brief: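 Read-out is liquid scintillation counting of Triton X-100 lysates after 15 min, 37° C uptake of 1 μM [3H]-taurocholate in Na+ Ringer's buffer (145 mM Na). Beforehand, PTH and HepG2-NTCP cells had 24 h in PMM for NTCP induction and 2 h of compound or DMSO treatment.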

[1] = given as a range, marked * (asterisk not explained)
[2] = IC50, given as a range, marked * (asterisk not explained)
[3] = given as a range, assay not given

SMILES | IC50 [2] [nM] | IC50 [3] [nM] | also measured
CCC1NC(=O)C(C2OC(Oc3cc(OC)cc(OCc4ccc(F)cc4)c3)CC2C)N(C)C(=O)C(C(C)C)N(C)C(=O)C(CC(C)C)N(C)C(=O)C(CC(C)C)N(C)C(=O)C(C)NC(=O)C(C)NC(=O)C(CC(C)C)N(C)C(=O)C(C(C)C)NC(=O)C(CC(C)C)N(C)C(=O)CN(C)C1=O (stereo not drawn) [Compound 60A-o] |  |  | IC50 [1]: 1000 to 100000 nM
CCC1NC(=O)C(C2OC(Oc3cccc(OCc4ccc(F)c(Cl)c4)c3)CC2C)N(C)C(=O)C(C(C)C)N(C)C(=O)C(CC(C)C)N(C)C(=O)C(CC(C)C)N(C)C(=O)C(C)NC(=O)C(C)NC(=O)C(CC(C)C)N(C)C(=O)C(C(C)C)NC(=O)C(CC(C)C)N(C)C(=O)CN(C)C1=O (stereo not drawn) [Compound 22A-o] |  |  | IC50 [1]: 1000 to 100000 nM
CCOc1ccc(OC2CC(C)C(C3C(=O)NC(CC)C(=O)N(C)CC(=O)N(C)C(CC(C)C)C(=O)NC(C(C)C)C(=O)N(C)C(CC(C)C)C(=O)NC(C)C(=O)NC(C)C(=O)N(C)C(CC(C)C)C(=O)N(C)C(CC(C)C)C(=O)N(C)C(C(C)C)C(=O)N3C)O2)cc1 (stereo not drawn) [Compound 27A-o] | 1000 to 100000 |  | 
CCC1NC(=O)C(C2OC(Sc3cc(Cl)cc(OCC4CCN(C)CC4)c3)CC2C)N(C)C(=O)C(C(C)C)N(C)C(=O)C(CC(C)C)N(C)C(=O)C(CC(C)C)N(C)C(=O)C(C)NC(=O)C(C)NC(=O)C(CC(C)C)N(C)C(=O)C(C(C)C)NC(=O)C(CC(C)C)N(C)C(=O)CN(C)C1=O (stereo not drawn) [Compound 71] |  |  | IC50 [1]: 1000 to 100000 nM
CCC1NC(=O)C(C2OC(Sc3ccc(N4CCOCC4)cc3)CC2C)N(C)C(=O)C(C(C)C)N(C)C(=O)C(CC(C)C)N(C)C(=O)C(CC(C)C)N(C)C(=O)C(C)NC(=O)C(C)NC(=O)C(CC(C)C)N(C)C(=O)C(C(C)C)NC(=O)C(CC(C)C)N(C)C(=O)CN(C)C1=O [Compound 3A, [2-((2R,3R)-3-methyl-5-(4-morpholinophenylthio)tetrahydrofuran-2-yl)-2-(methylamino)acetic acid]^1-cyclosporin A] |  | 1 to 1000 | 
CCC1NC(=O)C(C2OC(Oc3ccc(NC(C)=O)cc3)CC2C)N(C)C(=O)C(C(C)C)N(C)C(=O)C(CC(C)C)N(C)C(=O)C(CC(C)C)N(C)C(=O)C(C)NC(=O)C(C)NC(=O)C(CC(C)C)N(C)C(=O)C(C(C)C)NC(=O)C(CC(C)C)N(C)C(=O)CN(C)C1=O (stereo not drawn) [Compound 4A-o] | 1000 to 100000 |  | 
CCC1NC(=O)C(C2OC(Sc3cccc(OCc4ccccn4)c3)CC2C)N(C)C(=O)C(C(C)C)N(C)C(=O)C(CC(C)C)N(C)C(=O)C(CC(C)C)N(C)C(=O)C(C)NC(=O)C(C)NC(=O)C(CC(C)C)N(C)C(=O)C(C(C)C)NC(=O)C(CC(C)C)N(C)C(=O)CN(C)C1=O [Compound 52A, [2-((2R,3R)-3-methyl-5-(3-(pyridin-2-ylmethoxy)phenylthio)tetrahydrofuran-2-yl)-2-(methylamino)acetic acid]^1-cyclosporin A] |  | 1 to 1000 | 
CCOc1ccc(SC2CC(C)C(C3C(=O)NC(CC)C(=O)N(C)CC(=O)N(C)C(CC(C)C)C(=O)NC(C(C)C)C(=O)N(C)C(CC(C)C)C(=O)NC(C)C(=O)NC(C)C(=O)N(C)C(CC(C)C)C(=O)N(C)C(CC(C)C)C(=O)N(C)C(C(C)C)C(=O)N3C)O2)cc1 [Compound 27A, [2-((2R,3R)-5-(4-ethoxyphenylthio)-3-methyltetrahydrofuran-2-yl)-2-(methylamino)acetic acid]^1-cyclosporin A] |  | 1 to 1000 | 
CCC1NC(=O)C(C2OC(OCc3ccc(OC)cc3)CC2C)N(C)C(=O)C(C(C)C)N(C)C(=O)C(CC(C)C)N(C)C(=O)C(CC(C)C)N(C)C(=O)C(C)NC(=O)C(C)NC(=O)C(CC(C)C)N(C)C(=O)C(C(C)C)NC(=O)C(CC(C)C)N(C)C(=O)CN(C)C1=O [Compound 83A, [2-((2R,3R)-5-(4-methoxybenzyloxy)-3-methyltetrahydrofuran-2-yl)-2-(methylamino)acetic acid]^1-cyclosporin A] |  | 1 to 1000 | 
CCC1NC(=O)C(C2OC(Oc3cccc(OCc4ccc(F)cc4Cl)c3)CC2C)N(C)C(=O)C(C(C)C)N(C)C(=O)C(CC(C)C)N(C)C(=O)C(CC(C)C)N(C)C(=O)C(C)NC(=O)C(C)NC(=O)C(CC(C)C)N(C)C(=O)C(C(C)C)NC(=O)C(CC(C)C)N(C)C(=O)CN(C)C1=O (stereo not drawn) [Compound 23A-o] |  |  | IC50 [1]: 1000 to 100000 nM
CCC1NC(=O)C(C2OC(OCc3cccc(OC)c3)CC2C)N(C)C(=O)C(C(C)C)N(C)C(=O)C(CC(C)C)N(C)C(=O)C(CC(C)C)N(C)C(=O)C(C)NC(=O)C(C)NC(=O)C(CC(C)C)N(C)C(=O)C(C(C)C)NC(=O)C(CC(C)C)N(C)C(=O)CN(C)C1=O [Compound 81A, [2-((2R,3R)-5-(3-methoxybenzyloxy)-3-methyltetrahydrofuran-2-yl)-2-(methylamino)acetic acid]^1-cyclosporin A] |  | 1 to 1000 | 
CCC1NC(=O)C(C2OC(Sc3cccc(OCc4cccs4)c3)CC2C)N(C)C(=O)C(C(C)C)N(C)C(=O)C(CC(C)C)N(C)C(=O)C(CC(C)C)N(C)C(=O)C(C)NC(=O)C(C)NC(=O)C(CC(C)C)N(C)C(=O)C(C(C)C)NC(=O)C(CC(C)C)N(C)C(=O)CN(C)C1=O (stereo not drawn) [Compound 69] | 1000 to 100000 |  | 
CCC1NC(=O)C(C2OC(Sc3cccc(OCc4ccc(F)cc4C)c3)CC2C)N(C)C(=O)C(C(C)C)N(C)C(=O)C(CC(C)C)N(C)C(=O)C(CC(C)C)N(C)C(=O)C(C)NC(=O)C(C)NC(=O)C(CC(C)C)N(C)C(=O)C(C(C)C)NC(=O)C(CC(C)C)N(C)C(=O)CN(C)C1=O [Compound 24A, [2-((2R,3R)-5-(3-(4-fluoro-2-methylbenzyloxy)phenylthio)-3-methyltetrahydrofuran-2-yl)-2-(methylamino)acetic acid]^1-cyclosporin A] |  | 1 to 1000 | 
CCC1NC(=O)C(C2OC(Oc3cccc(OCC4CCN(C)CC4)c3)CC2C)N(C)C(=O)C(C(C)C)N(C)C(=O)C(CC(C)C)N(C)C(=O)C(CC(C)C)N(C)C(=O)C(C)NC(=O)C(C)NC(=O)C(CC(C)C)N(C)C(=O)C(C(C)C)NC(=O)C(CC(C)C)N(C)C(=O)CN(C)C1=O (stereo not drawn) [Compound 72-o] | 1000 to 100000 |  | 
CCC1NC(=O)C(C2OC(OCc3ccccc3OC)CC2C)N(C)C(=O)C(C(C)C)N(C)C(=O)C(CC(C)C)N(C)C(=O)C(CC(C)C)N(C)C(=O)C(C)NC(=O)C(C)NC(=O)C(CC(C)C)N(C)C(=O)C(C(C)C)NC(=O)C(CC(C)C)N(C)C(=O)CN(C)C1=O (single isomer, unassigned) [Compound 82A] |  | 1 to 1000 | 
CCC1NC(=O)C(C2OC(Oc3ccc(N(C)C)cc3)CC2C)N(C)C(=O)C(C(C)C)N(C)C(=O)C(CC(C)C)N(C)C(=O)C(CC(C)C)N(C)C(=O)C(C)NC(=O)C(C)NC(=O)C(CC(C)C)N(C)C(=O)C(C(C)C)NC(=O)C(CC(C)C)N(C)C(=O)CN(C)C1=O (stereo not drawn) [Compound 51A-o] | 1000 to 100000 |  | 
CCOc1cccc(OC2CC(C)C(C3C(=O)NC(CC)C(=O)N(C)CC(=O)N(C)C(CC(C)C)C(=O)NC(C(C)C)C(=O)N(C)C(CC(C)C)C(=O)NC(C)C(=O)NC(C)C(=O)N(C)C(CC(C)C)C(=O)N(C)C(CC(C)C)C(=O)N(C)C(C(C)C)C(=O)N3C)O2)c1 (stereo not drawn) [Compound 29A-o] | 1000 to 100000 |  | 
CCC1NC(=O)C(C2OC(OCc3cccc(OCC4CCOCC4)c3)CC2C)N(C)C(=O)C(C(C)C)N(C)C(=O)C(CC(C)C)N(C)C(=O)C(CC(C)C)N(C)C(=O)C(C)NC(=O)C(C)NC(=O)C(CC(C)C)N(C)C(=O)C(C(C)C)NC(=O)C(CC(C)C)N(C)C(=O)CN(C)C1=O (stereo not drawn) [Compound 105] | 1000 to 100000 |  | 
CCC1NC(=O)C(C2OC(Oc3cccc(OCc4ccc(CN(C)C)cc4)c3)CC2C)N(C)C(=O)C(C(C)C)N(C)C(=O)C(CC(C)C)N(C)C(=O)C(CC(C)C)N(C)C(=O)C(C)NC(=O)C(C)NC(=O)C(CC(C)C)N(C)C(=O)C(C(C)C)NC(=O)C(CC(C)C)N(C)C(=O)CN(C)C1=O (stereo not drawn) [Compound 13A-o] |  |  | IC50 [1]: 1000 to 100000 nM
CCC1NC(=O)C(C2OC(SCc3cccc(OCC4CCOCC4)c3)CC2C)N(C)C(=O)C(C(C)C)N(C)C(=O)C(CC(C)C)N(C)C(=O)C(CC(C)C)N(C)C(=O)C(C)NC(=O)C(C)NC(=O)C(CC(C)C)N(C)C(=O)C(C(C)C)NC(=O)C(CC(C)C)N(C)C(=O)CN(C)C1=O (stereo not drawn) [Compound 105-s] | 1000 to 100000 |  | 
CCC1NC(=O)C(C2OC(Oc3cc(OC)cc(OCc4ccccc4)c3)CC2C)N(C)C(=O)C(C(C)C)N(C)C(=O)C(CC(C)C)N(C)C(=O)C(CC(C)C)N(C)C(=O)C(C)NC(=O)C(C)NC(=O)C(CC(C)C)N(C)C(=O)C(C(C)C)NC(=O)C(CC(C)C)N(C)C(=O)CN(C)C1=O (stereo not drawn) [Compound 65-o] |  |  | IC50 [1]: 1000 to 100000 nM
CCC1NC(=O)C(C2OC(Sc3cccc(OCc4ccc5c(c4)OCO5)c3)CC2C)N(C)C(=O)C(C(C)C)N(C)C(=O)C(CC(C)C)N(C)C(=O)C(CC(C)C)N(C)C(=O)C(C)NC(=O)C(C)NC(=O)C(CC(C)C)N(C)C(=O)C(C(C)C)NC(=O)C(CC(C)C)N(C)C(=O)CN(C)C1=O [Compound 18A, [2-((2R,3R)-5-(3-(benzo[d][1,3]dioxol-5-ylmethoxy)phenylthio)-3-methyltetrahydrofuran-2-yl)-2-(methylamino)acetic acid]^1-cyclosporin A] |  | 1 to 1000 | 
CCC1NC(=O)C(C2OC(SCc3cc(Cl)c(F)cc3Cl)CC2C)N(C)C(=O)C(C(C)C)N(C)C(=O)C(CC(C)C)N(C)C(=O)C(CC(C)C)N(C)C(=O)C(C)NC(=O)C(C)NC(=O)C(CC(C)C)N(C)C(=O)C(C(C)C)NC(=O)C(CC(C)C)N(C)C(=O)CN(C)C1=O (stereo not drawn) [Compound 103-s] | 1000 to 100000 |  | 
CCC1NC(=O)C(C2OC(Sc3cc(OCCOC)cc(OCC4CCOCC4)c3)CC2C)N(C)C(=O)C(C(C)C)N(C)C(=O)C(CC(C)C)N(C)C(=O)C(CC(C)C)N(C)C(=O)C(C)NC(=O)C(C)NC(=O)C(CC(C)C)N(C)C(=O)C(C(C)C)NC(=O)C(CC(C)C)N(C)C(=O)CN(C)C1=O (stereo not drawn) [Compound 55] |  |  | IC50 [1]: 1000 to 100000 nM
